Experiments:
Assay type in all cases: in vivo
[1] = tested on: Magnaporthe grisea; Anamorph: Pyricularia oryzae; test: whole plant or invertebrate; details: 24 h, read-out: PYRIOR 1 DP disease control
Cercospora beticola = test: Leaf spot of sugar beets (CERCBE) disease control; details: 24 h, 1 Day Protectant, high volume, read-out: Disease Control CERCBE 1 DP
Description: Technical grades of materials were dissolved in acetone, which were then mixed with nine volumes of water containing 110 ppm Triton X-100. The fungicide solutions were applied onto wheat seedlings using an automated booth sprayer to run-off. All sprayed plants were allowed to air dry prior to further handling. All fungicides were evaluated using the aforementioned method for their activity vs. all target diseases. Wheat leaf blotch and brown rust activity were also evaluated using track spray applications, in which case the fungicides were formulated as EC formulations, containing 0.1% Trycol 5941 in the spray solutions. Sugar beet plants (variety HH88) were grown in soil-less Metro mix and trimmed regularly to maintain a uniform plant size prior to test. Plants were inoculated with a spore suspension 24 hr after fungicide treatments. Inoculated plants were kept in a dew chamber at 22° C. for 48 hr then incubated in a greenhouse set at 24° C. under a clear plastic hood with bottom ventilation until disease symptoms were fully expressed. Fungicide formulation, application and disease assessment on the sprayed leaves followed the procedures as described in the Example A.

Uncinula necator = test: Grape powdery mildew (UNCINE) disease control; details: Erysiphe necator, 24 h, High volume application, 1 Day Protectant, read-out: UNCINE 1 DP disease control
Description: Technical grades of materials were dissolved in acetone, which were then mixed with nine volumes of water containing 110 ppm Triton X-100. The fungicide solutions were applied onto wheat seedlings using an automated booth sprayer to run-off. All sprayed plants were allowed to air dry prior to further handling. All fungicides were evaluated using the aforementioned method for their activity vs. all target diseases. Wheat leaf blotch and brown rust activity were also evaluated using track spray applications, in which case the fungicides were formulated as EC formulations, containing 0.1% Trycol 5941 in the spray solutions. Grape seedlings (variety Carignane) were grown in soil-less Metro mix, with one plant per pot, and used in the test when approximately one month old. Plants were inoculated 24 hr after fungicide treatment by shaking spores from infected leaves over test plants. Plants were maintained in a greenhouse set at 20° C. until disease was fully developed. Fungicide formulation, application and disease assessment on the sprayed leaves followed the procedures as described in the Example A.

Erysiphe cichoracearum = test: Powdery mildew of cucumber (ERYSCI) disease control; details: Golovinomyces cichoracearum, 24 h, 1 Day Protectant, high volume, read-out: Disease Control ERYSCI 1 DP
Description: Technical grades of materials were dissolved in acetone, which were then mixed with nine volumes of water containing 110 ppm Triton X-100. The fungicide solutions were applied onto wheat seedlings using an automated booth sprayer to run-off. All sprayed plants were allowed to air dry prior to further handling. All fungicides were evaluated using the aforementioned method for their activity vs. all target diseases. Wheat leaf blotch and brown rust activity were also evaluated using track spray applications, in which case the fungicides were formulated as EC formulations, containing 0.1% Trycol 5941 in the spray solutions. Cucumber seedlings (variety Bush Pickle) were grown in soil-less Metro mix, with one plant per pot, and used in the test when 12 to 14 days old. Plants were inoculated with a spore suspension 24 hr following fungicide treatments. After inoculation the plants remained in the greenhouse set at 20° C. until disease was fully expressed. Fungicide formulation, application and disease assessment on the sprayed leaves followed the procedures as described in the Example A.

[2] = tested on: Glomerella lagenarium; Anamorph: Colletotrichum lagenarium; test: Cucumber anthracnose (COLLLA) disease control; details: Colletotrichum orbiculare, 24 h, 1 Day Protectant, high volume, read-out: Disease Control COLLLA 1 DP
Description: Technical grades of materials were dissolved in acetone, which were then mixed with nine volumes of water containing 110 ppm Triton X-100. The fungicide solutions were applied onto wheat seedlings using an automated booth sprayer to run-off. All sprayed plants were allowed to air dry prior to further handling. All fungicides were evaluated using the aforementioned method for their activity vs. all target diseases. Wheat leaf blotch and brown rust activity were also evaluated using track spray applications, in which case the fungicides were formulated as EC formulations, containing 0.1% Trycol 5941 in the spray solutions. Cucumber seedlings (variety Bush Pickle) were propagated in soil-less Metro mix, with each pot having one plant, and used in the test when 12 to 14 days old. Test plants were inoculated with an aqueous spore suspension of Colletotrichum lagenarium 24 hr after fungicide treatments. After inoculation the plants were kept in a dew room at 22° C. with 100% relative humidity for 48 hr to permit spores to germinate and infect the leaf. The plants were then transferred to a growth room set at 22° C. for disease to develop. Fungicide formulation, application and disease assessment on the sprayed leaves followed the procedures as described in the Example A.

Venturia inaequalis = test: Apple scab (VENTIN) disease control; details: 24 h, High volume application, 1 Day Protectant, read-out: VENTIN 1 DP disease control
Description: Technical grades of materials were dissolved in acetone, which were then mixed with nine volumes of water containing 110 ppm Triton X-100. The fungicide solutions were applied onto wheat seedlings using an automated booth sprayer to run-off. All sprayed plants were allowed to air dry prior to further handling. All fungicides were evaluated using the aforementioned method for their activity vs. all target diseases. Wheat leaf blotch and brown rust activity were also evaluated using track spray applications, in which case the fungicides were formulated as EC formulations, containing 0.1% Trycol 5941 in the spray solutions. Apple seedlings (variety McIntosh) were grown in soil-less Metro mix, with one plant per pot. Seedlings with two expanding young leaves at the top (older leaves at bottom of the plants were trimmed) were used in the test. Plants were inoculated with a spore suspension of Venturia inaequalis 24 hr after fungicide treatment and kept in a 22° C. dew chamber with 100% RH for 48 hr, and then moved to a greenhouse set at 20° C. for disease to develop. Fungicide formulation, application and disease assessment on the sprayed leaves followed the procedures as described in the Example A.

SMILES | pest or weed control at 100 ppm [1] [%] | pest or weed control at 100 ppm (Cercospora beticola) [%] | pest or weed control at 100 ppm (Uncinula necator) [%] | pest or weed control at 100 ppm (Erysiphe cichoracearum) [%] | pest or weed control at 100 ppm [2] [%] | pest or weed control at 100 ppm (Venturia inaequalis) [%]
COc1ccnc(C(=O)N[C@H]2CCC[C@H](Oc3ccccc3)[C@@H](OCCCc3ccccc3)[C@H](C)OC2=O)c1OCOC(C)=O [F130] | 80 to 100 | 80 to 100 | 0 to 80 | 80 to 100 |  | 
COCCC(=O)Oc1c(OC)ccnc1C(=O)N[C@H]1CCC[C@H](Oc2ccccc2)[C@@H](OCCCc2ccccc2)[C@H](C)OC1=O [F132] | 0 to 80 | 0 to 80 | 0 to 80 | 0 to 80 |  | 
COc1ccnc(C(=O)N[C@H]2CCC[C@H](OCCCc3ccccc3)[C@@H](Oc3ccccc3)[C@H](C)OC2=O)c1OC(C)=O [F134] | 80 to 100 | 80 to 100 | 0 to 80 | 0 to 80 |  | 
CCCO[C@H]1CCC[C@H](NC(=O)c2nccc(OC)c2OCOC(C)=O)C(=O)O[C@@H](C)[C@@H]1Oc1ccccc1 [F138] | 80 to 100 | 80 to 100 | 0 to 80 | 0 to 80 | 80 to 100 | 
CCCO[C@H]1CCC[C@H](NC(=O)c2nccc(OC)c2OCOC(=O)C(C)C)C(=O)O[C@@H](C)[C@@H]1Oc1ccccc1 [F139] | 80 to 100 | 80 to 100 | 0 to 80 | 0 to 80 | 80 to 100 | 
CCCO[C@H]1CCC[C@H](NC(=O)c2nccc(OC)c2OC(=O)CCOC)C(=O)O[C@@H](C)[C@@H]1Oc1ccccc1 [F140] | 80 to 100 | 80 to 100 | 0 to 80 | < 0 | 80 to 100 | 
CCCO[C@H]1CCC[C@H](NC(=O)c2nccc(OC)c2OC(C)=O)C(=O)O[C@@H](C)[C@@H]1Oc1ccccc1 [F141] | 80 to 100 | 80 to 100 | 0 to 80 | 0 to 80 | 80 to 100 | 0 to 80
CCCO[C@H]1CCC[C@H](NC(=O)c2nccc(OC)c2OCOC(=O)C(C)C)C(=O)O[C@@H](C)[C@@H]1OC1CCCC1 [F154] | 80 to 100 | 80 to 100 | 0 to 80 | 80 to 100 | 80 to 100 | 
CCCO[C@H]1CCC[C@H](NC(=O)c2nccc(OC)c2OCOC(C)=O)C(=O)O[C@@H](C)[C@@H]1OC1CCCC1 [F155] | 80 to 100 | 80 to 100 | 0 to 80 | 80 to 100 | 80 to 100 | 
COc1ccnc(C(=O)N[C@H]2CCC[C@H](OC3CCCC3)[C@@H](OCCCc3ccccc3)[C@H](C)OC2=O)c1OCOC(C)=O [F165] | 80 to 100 | 80 to 100 | 0 to 80 | 0 to 80 |  | 
CCCCCO[C@H]1[C@H](C)OC(=O)[C@@H](NC(=O)c2nccc(OC)c2OCOC(C)=O)CCC[C@@H]1OC1CCCC1 [F166] | 80 to 100 | 80 to 100 | 0 to 80 | 80 to 100 |  | 
COc1ccc(O[C@H]2CCC[C@H](NC(=O)c3nccc(OC)c3OCOC(=O)C(C)C)C(=O)O[C@@H](C)[C@@H]2OC2CCCC2)cc1 [F169] | 80 to 100 | 80 to 100 | 0 to 80 | 80 to 100 |  | 
COc1ccc(O[C@H]2CCC[C@H](NC(=O)c3nccc(OC)c3OCOC(C)=O)C(=O)O[C@@H](C)[C@@H]2OC2CCCC2)cc1 [F170] | 80 to 100 | 80 to 100 | 0 to 80 | 0 to 80 |  | 
COc1ccnc(C(=O)N[C@H]2CCC[C@H](OCCCC(F)(F)F)[C@@H](OC3CCCC3)[C@H](C)OC2=O)c1OCOC(=O)C(C)C [F171] | 80 to 100 | 80 to 100 | 0 to 80 | 80 to 100 |  | 
COc1ccnc(C(=O)N[C@H]2CCC[C@H](OCCCC(F)(F)F)[C@@H](OC3CCCC3)[C@H](C)OC2=O)c1OCOC(C)=O [F172] | 80 to 100 | 80 to 100 | 0 to 80 | 80 to 100 |  | 
COc1ccnc(C(=O)N[C@H]2CCC[C@H](OCCCC(F)(F)F)[C@@H](OC3CCCC3)[C@H](C)OC2=O)c1OC(C)=O [F173] | 80 to 100 | 80 to 100 | 0 to 80 | 0 to 80 |  | 
CCOCC(=O)OCOc1c(OC)ccnc1C(=O)N[C@H]1CCC[C@H](Oc2ccccc2)[C@@H](OC(=O)C2CCCC2)[C@H](C)OC1=O [F237] | 80 to 100 | 80 to 100 | 0 to 80 | < 0 | 0 to 80 | 80 to 100
COc1ccnc(C(=O)N[C@H]2CCC[C@H](Oc3ccccc3)[C@@H](OC(=O)C3CC3)[C@H](C)OC2=O)c1OCOC(=O)C(C)C [F241] | 80 to 100 | 80 to 100 | 0 to 80 | < 0 | 80 to 100 | 0 to 80
COc1ccnc(C(=O)N[C@H]2CCC[C@H](Oc3ccccc3)[C@@H](OC(=O)C3CC3)[C@H](C)OC2=O)c1OC(C)=O [F242] | 80 to 100 | 80 to 100 | 0 to 80 | < 0 | 80 to 100 | 0 to 80
C=C(C)CO[C@H]1CCC[C@H](NC(=O)c2nccc(OC)c2OCOC(C)=O)C(=O)O[C@@H](C)[C@@H]1OC [F250] | 80 to 100 | 0 to 80 | 0 to 80 | < 0 | 0 to 80 | 80 to 100
COc1ccnc(C(=O)N[C@H]2CCC[C@H](OCC(C)C)[C@@H](OC)[C@H](C)OC2=O)c1OCOC(C)=O [F251] | 80 to 100 | 0 to 80 | 0 to 80 | < 0 | 80 to 100 | < 0

Reference: patent US9681664B2, “Macrocyclic picolinamides as fungicides” (Dow Agrosciences LLC, priority 2012, dated 2017)
